In publication PMC8246065 (The EMBO Journal, 2021):

What was measured:
[1] = target: T1, NOD1∆CARD (Homo sapiens, UniProt Q9Y239); assay: MST with cell lysates expressing NOD1 mutants; type: binding; details: Fig EV5D
T1 sequence (Q9Y239 196-953 limits assumed): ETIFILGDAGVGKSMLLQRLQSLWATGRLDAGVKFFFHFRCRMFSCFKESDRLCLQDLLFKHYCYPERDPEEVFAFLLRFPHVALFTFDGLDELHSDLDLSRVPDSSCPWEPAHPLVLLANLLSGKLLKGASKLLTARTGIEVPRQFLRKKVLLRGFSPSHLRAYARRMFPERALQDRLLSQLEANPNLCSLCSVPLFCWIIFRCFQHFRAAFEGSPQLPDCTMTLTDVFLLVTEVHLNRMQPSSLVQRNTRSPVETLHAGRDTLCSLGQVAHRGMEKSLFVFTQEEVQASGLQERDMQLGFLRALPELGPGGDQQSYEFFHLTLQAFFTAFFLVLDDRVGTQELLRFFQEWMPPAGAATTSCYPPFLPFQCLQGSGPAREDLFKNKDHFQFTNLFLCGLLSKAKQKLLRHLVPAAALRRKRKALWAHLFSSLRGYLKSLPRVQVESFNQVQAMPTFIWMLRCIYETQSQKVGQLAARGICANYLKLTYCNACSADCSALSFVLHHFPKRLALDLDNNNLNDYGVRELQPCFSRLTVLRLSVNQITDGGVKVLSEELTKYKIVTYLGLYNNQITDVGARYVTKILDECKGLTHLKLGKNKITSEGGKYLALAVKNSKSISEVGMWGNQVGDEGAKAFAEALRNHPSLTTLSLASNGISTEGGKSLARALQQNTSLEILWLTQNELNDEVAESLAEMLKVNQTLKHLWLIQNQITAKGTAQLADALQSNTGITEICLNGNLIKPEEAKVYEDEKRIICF
Method: Binding of NOD1, NOD2, GFP, or NLRP3‐GFP to different ligands was measured by microscale thermophoresis (MST). 20 nM GFP or GFP‐tagged proteins in MST buffer (PBS pH 7.4, containing 0.5% NP‐40 and 10 mM DTT) was incubated with different concentrations of ligands. Immediately, samples were loaded into standard glass capillaries (NanoTemper) and thermophoresis analysis was performed on a NanoTemper Monolith NT.115 instrument (40% LED, 80% MST power) at 22°C. A laser on‐time of 30 s and a laser off‐time of 5 s were used. The experiment was performed in triplicates, and the MST curves were fitted using NT analysis software to obtain the K d values.

[2] = test system: HEK293T WT and NOD1/2 KO NF‐κB reporter cells; assay: NF-κB luciferase assay and IL8 qRT-PCR in HEK293T WT and NOD1/2 KO cells; type: cell-based, human; details: cytosolic S1P, HEK293T WT vs NOD1/2 KO
Method: HEK293T WT and NOD1/2 KO NF‐κB reporter cells were seeded in 96‐well plates and stimulated with various stressors for 8 h. Then, cells were lysed in lysis buffer (Thermo Fisher Scientific) and luciferase activities were determined with firefly luciferase glow kit (Thermo Fisher Scientific) according to the manufacturer’s instructions. Luciferase activities were normalized to the amount of protein determined with Coomassie Plus kit (Thermo Fisher Scientific). Fold inductions were calculated against normalized luciferase activities of corresponding controls.
Total RNA was isolated with TRIzol reagent, as described by the manufacturer (Invitrogen). RNA (1 μg) was used to generate cDNA via the iScript cDNA Synthesis Kit (Bio‐Rad), and qRT–PCR was performed using Power SYBR Green Master Mix (Applied Biosystems) in a StepOne Plus thermocycler (Applied Biosystems). The average threshold cycle (Ct) of quadruplicate reactions was employed for all subsequent calculations using the ΔΔCt method. Gene expression was normalized to glyceraldehyde‐3‐phosphate dehydrogenase (GAPDH), and fold changes were calculated against corresponding controls. qRT–PCR data were representative of at least three independent experiments, with at least 2 technical replicates per experiment. […]

[3] = test system: NOD1/2-RIP2 interaction; assay: GFP immunoprecipitation of NOD1/2 and Western blot for RIP2; type: cell-based, human; details: S1P 20 µM with digitonin, 1 h
Method: HeLa NOD1 or NOD2 cells were grown overnight and afterward treated with doxycycline overnight to induce NOD1 or NOD2 expression. Cells of one 10‐cm dish were lysed with 500 µl of lysis buffer (25 mM Tris–HCl, pH 7.5, 150 mM NaCl, 1 mM EDTA, 1% NP‐40, and 5% glycerol) supplemented with protease inhibitors (Roche, 05892791001) on ice for 20 min. Lysates were centrifuged at 16,000 × g at 4°C for 10 min, and supernatants were mixed with GFP‐Trap agarose (ChromoTek GmbH, gta‐20) overnight at 4°C. Afterward, agaroses were washed twice with PBS and boiled with sample buffer for SDS–PAGE. For lipid‐coated beads IP, lipid‐coated beads were incubated with supernatants for 2 h at room temperature and then washed with lysis buffer for three times and boiled with sample buffer for SDS–PAGE.

[4] = test system: HeLa NOD1 or NOD2 cells; assay: Western blot analysis in HeLa NOD1 or NOD2 cells; type: cell-based, human
Method: Cells were lysed in RIPA buffer supplemented with protease inhibitor cocktail and PhosSTOP (Roche, 4906837001) on ice for 10 min. After centrifugation at 16,000 × g for 10 min, supernatants were heated with SDS sample buffer at 95°C for 10 min. Proteins were separated on 4–15% SDS gels (Bio‐Rad, 4561086) and transferred onto nitrocellulose membranes. The membranes were incubated with primary antibodies at 4°C overnight and secondary antibodies at RT for 1 h, respectively. All antibodies were diluted in PBS supplemented with 0.1% Tween‐20 (Sigma‐Aldrich, P1379) and 5% BSA. Membranes were developed with ECL detection Kit (Thermo Fisher Scientific, 34094) and exposed with ChemiDoc (Bio‐Rad). The antibody against ACTB/β‐actin was used as loading control.

[5] = test system: NOD1/2; assay: dSTORM imaging of HeLa NOD1 or NOD2 cells; type: cell-based, human; details: S1P 20 µM, 2 h
Method: For dSTORM, HeLa inducible NOD1‐GFP or NOD2‐GFP cells were grown on µ‐Slides with glass bottom (ibidi, Germany) and treated with doxycycline overnight to induce NOD1‐GFP or NOD2‐GFP expression. […] Then, cells were fixed with 4% (v:v) paraformaldehyde in PBS, pH 7.4 for 10 min at room temperature (RT). After washing twice with PBS, cells were incubated with 50 mM glycine in PBS, pH 7.4 for 10 min and permeabilized with 0.05% saponin (Sigma‐Aldrich, 47036), 1% BSA in PBS for 10 min. Rabbit anti‐GFP antibody (ChromoTek) and Alex Fluor 647‐conjugated goad anti‐rabbit antibody (Thermo Fisher Scientific) were diluted in PBS and incubated for 1 h at room temperature. The super resolution imaging was performed with Nanoimager S (Oxford Nanoimaging). For single particle tracking in live cells, Nanoimager S was pre‐warmed at 37°C. […] Medium was then replaced with fresh DMEM without phenol red. Live imaging was performed with Nanoimager S at acquisition speed of 100fps.

## CCCCCCCCCCCCC/C=C/[C@@H](O)[C@@H](N)COP(=O)(O)O [S1P, sphingosine‐1‐phosphate]
[1]
  Interaction with NOD1∆CARD by MST: still interacted
[2]
  NF-κB activation and IL8 expression: induced NOD1/2‐dependent NF‐κB activation and IL8 expression
[3]
  Interaction between NOD1/2 and RIP2: stimulated the interaction between NOD1/2 and RIP2
[4]; 20 µM with digitonin, Fig EV4G
  NOD1 or NOD2 degradation: did not induce NOD1 or NOD2 degradation
[4]; cytosolic S1P 20 µM
  MAPK activation and NF-κB activation: triggered MAPK activation and NF‐κB activation
[5]
  Oligomerization of NOD1/2: oligomerization of NOD1/2 induced
